What is called EC50 is the concentration needed to bring the measured effect to its halfway point.

Data set [1] relates to EBOV-GP-Pseudotype Virus (pEBOV). As to the kind of experiment: microbe, parasite or virus in culture. The settings on record: Zaire ebolavirus, 48 h; for inhibition at 10 µM: M-HeLa, read-out: %inh@10 μM (pEBOV); for EC50: HeLa, read-out: EC50 (μM) (pEBOV).
For data set [2] the test system is unchanged.
The nature of data set [3]: in vitro. The following applies: human.
Data set [4] can be described thus: in vitro. The settings on record: chlorocebus sabaeus.
The subject of data set [5] is wild-type Zaire EBOV Mayinga 1976 strain (EBOV May). As to the kind of experiment: microbe, parasite or virus in culture. The following applies: Zaire ebolavirus, Vero C1008, 72 h, read-out: EC50 (μM), replicative EBOV.
Data set [6] shares this test system.
Data set [7] concerns VSV-G-pseudotype virus (pVSV-G). As to the kind of experiment: microbe, parasite or virus in culture. The data set is classed as cell-based. The settings on record: Vesicular stomatitis virus, read-out: %inh@10 µM (pVSV-G).

Bounds are passed on as bounds.

With `CN(C)CC(=O)Nn1c2ccccc2c2ccccc21` [Compound 4], in data set [1], the inhibition at 10 µM is less than 75%. In addition, the “antiviral activity against pEBOV, in words” value (shortened to “antiviral activity”) in data set [2] is “inactive”.
Turning to `O=C(CNCCC1CCN(Cc2ccccc2)CC1)NN(c1ccccc1)c1ccccc1` [Compound 10, 2-((2-(1-Benzylpiperidin-4-yl)ethyl)amino)-N′,N′-diphenylacetohydrazide], the CC50 at 24 h was 48 µM in data set [3] and 32.2 µM in data set [4]. In addition, the EC50 in data set [1] was found to be 3.13 µM; in data set [5], 1.9 µM. In data set [2], the “SI (pEBOV) (CC50/EC50)” value is given as 15. In data set [6], the “SI (CC50/EC50), replicative EBOV” value came to 16.9. For the same molecule, the inhibition at 10 µM in data set [7] was 2%.
Turning to `O=C(CCN1CCCC1)Nn1c2ccccc2c2ccccc21` [Compound 6], the CC50 at 24 h in data set [3] turned out to be 28 µM. In addition, in data set [1], the concentration for a half-maximal effect (EC50) stood at 1.29 µM. Moreover, the “SI (pEBOV) (CC50/EC50)” value in data set [2] is 21.7. Besides, in data set [7], the inhibition at 10 µM was 9%.
In turn, `CN1CCN(CCC(=O)NN(Cc2ccccc2)c2ccccc2)CC1` [Compound 34, N′-Benzyl-3-(4-methylpiperazin-1-yl)-N′-phenylpropanehydrazide] gave a CC50 in data set [3] of more than 10 µM. Further, the inhibition at 10 µM in data set [1] was less than 75%. For the same molecule, the “antiviral activity” value in data set [2] is “inactive”.
On the same counts, the results for `O=C(CCN1CCCCC1)NN(c1ccccc1)c1ccccc1` [Compound 19, N′,N′-Diphenyl-3-(piperidin-1-yl)propanehydrazide] are more than 10 µM, 60% and “inactive”.
Turning to `O=C(CNCCC1CCN(Cc2ccccc2)CC1)NC1c2ccccc2-c2ccccc21` [Compound 9, 2-((2-(1-Benzylpiperidin-4-yl)ethyl)amino)-N-(9H-fluoren-9-yl)acetamide], the CC50 at 24 h came out at 159 µM in data set [3] and 33.6 µM in data set [4]. The results for the 50% effective concentration (EC50) in data set [1] and in data set [5] were 1.7 µM and 0.25 µM, respectively. In addition, the “SI (pEBOV) (CC50/EC50)” value in data set [2] worked out at 93. Further, the “SI (CC50/EC50), replicative EBOV” value in data set [6] is given as 134.6. Moreover, the inhibition at 10 µM in data set [7] is -10%.
As for `CN1CCN(CCC(=O)Nn2c3ccccc3c3ccccc32)CC1` [Compound 3], the CC50 at 24 h in data set [3] amounted to 150 µM. Besides, the half-maximal effective concentration (EC50) in data set [1] was found to be 2.4 µM. Besides, the “SI (pEBOV) (CC50/EC50)” value in data set [2] stood at 62.5. Also, the inhibition at 10 µM in data set [7] stood at 10%.
In the case of `CN1CCN(CCC(=O)NN(c2ccccc2)c2ccccc2)CC1` [Compound 14, 3-(4-Methylpiperazin-1-yl)-N′,N′-diphenylpropanehydrazide], the CC50 in data set [3] and in data set [4] was more than 100 µM throughout. Further, the EC50 in data set [1] is 0.27 µM; in data set [5], more than 100 µM. Also, the “SI (pEBOV) (CC50/EC50)” value in data set [2] is reported as 358. Further, the inhibition at 10 µM in data set [7] was 2%.
In the case of `CN1CCN(CC(=O)NN(Cc2ccccc2)c2ccccc2)CC1` [Compound 33], the CC50 in data set [3] and in data set [4] was more than 100 µM each time. Moreover, in data set [1], the inhibition at 10 µM is 13%. Besides, the “antiviral activity” value in data set [2] is “inactive”. Also, the EC50 in data set [5] is more than 100 µM.
For the molecule `O=C(CNCCN1CCN(Cc2ccccc2)CC1)NN(c1ccccc1)c1ccccc1` [Compound 12, 2-((2-(4-Benzylpiperazin-1-yl)ethyl)amino)-N′,N′-diphenylacetohydrazide], the CC50 at 24 h in data set [3] came out at 108 µM; in data set [4] it was 101 µM. The EC50 stood at 2.17 µM in data set [1] and 7.8 µM in data set [5]. Besides, the “SI (pEBOV) (CC50/EC50)” value in data set [2] turned out to be 63. Also, the “SI (CC50/EC50), replicative EBOV” value in data set [6] was 12.9. Also, the inhibition at 10 µM in data set [7] is -29%.
Regarding `O=C(CNCCC1CCN(Cc2ccccc2)CC1)NN(Cc1ccccc1)c1ccccc1` [Compound 30, N′-Benzyl-2-((2-(1-benzylpiperidin-4-yl)ethyl)amino)-N′-phenylacetohydrazide], in data set [3], the CC50 at 24 h was determined as 106 µM. Besides, the concentration giving a half-maximal response (EC50) in data set [1] stood at 1.05 µM. The “SI (pEBOV) (CC50/EC50)” value in data set [2] amounted to 62. The inhibition at 10 µM in data set [7] is -25%.
Molecule `O=C(CCNCCC1CCN(Cc2ccccc2)CC1)NN(Cc1ccccc1)c1ccccc1` [Compound 31, N′-Benzyl-3-((2-(1-benzylpiperidin-4-yl)ethyl)amino)-N′-phenylpropanehydrazide] gave a CC50 in data set [3] of more than 10 µM. The inhibition at 10 µM in data set [1] is less than 75%. Besides, the “antiviral activity” value in data set [2] was “inactive”.
For `O=C(Cc1ccc(Br)cc1)NN(c1ccccc1)c1ccccc1` [Compound 29, 2-(4-Bromophenyl)-N′,N′-diphenylacetohydrazide], the CC50 in data set [3] was more than 10 µM. Moreover, the inhibition at 10 µM in data set [1] was 73%.
The matching figures for `CCOC(=O)C1CCN(CC(=O)N(c2ccccc2)c2ccccc2)CC1` [Compound 41, Ethyl 1-(2-(Diphenylamino)-2-oxoethyl)piperidine-4-carboxylate]: more than 100 µM and 40%.
`O=C(CNCCN1CCOCC1)NN(c1ccccc1)c1ccccc1` [Compound 22, 2-((2-Morpholinoethyl)amino)-N′,N′-diphenylacetohydrazide] came in with a CC50 in data set [3] of more than 10 µM. Moreover, the inhibition at 10 µM in data set [1] was 27%.
`O=C(CCN1CCCCC1)Nn1c2ccccc2c2ccccc21` [Compound 7]: the CC50 at 24 h in data set [3] stood at 5 µM. In data set [1], the EC50 was determined as 2.8 µM. For the same molecule, the “SI (pEBOV) (CC50/EC50)” value in data set [2] is listed as 1.78. In data set [7], the inhibition at 10 µM was found to be 30%.
As for `CCOC(=O)C1CCN(CCC(=O)NN(c2ccccc2)c2ccccc2)CC1` [Compound 18, Ethyl 1-(3-(2,2-Diphenylhydrazinyl)-3-oxopropyl)piperidine-4-carboxylate], the CC50 in data set [3] is more than 10 µM. Also, in data set [1], the inhibition at 10 µM was 24%.
On the same counts, the results for `O=C(CN1CCOCC1)NN(c1ccccc1)c1ccccc1` [Compound 20, 2-Morpholino-N′,N′-diphenylacetohydrazide] are more than 10 µM and -1%.
Consider `CN(C)CCC(=O)Nn1c2ccccc2c2ccccc21` [Compound 5], for which the inhibition at 10 µM in data set [1] was less than 75%. Besides, the “antiviral activity” value in data set [2] was “inactive”.
The molecule `O=C(CNCCC1CCN(Cc2ccccc2)CC1)N(c1ccccc1)c1ccccc1` [Compound 40, 2-((2-(1-Benzylpiperidin-4-yl)ethyl)amino)-N,N-diphenylacetamide] showed a CC50 at 24 h in data set [3] of 100 µM. For the same molecule, in data set [1], the inhibition at 10 µM was 8%.
In data set [3], `O=C(CCNCCN1CCOCC1)NN(c1ccccc1)c1ccccc1` [Compound 23, 3-((2-Morpholinoethyl)amino)-N′,N′-diphenylpropanehydrazide] registered a CC50 of more than 10 µM. Besides, the inhibition at 10 µM in data set [1] came out at 42%.
The molecule `O=C(CCNCCN1CCN(Cc2ccccc2)CC1)NN(Cc1ccccc1)c1ccccc1` [Compound 32, N′-Benzyl-3-((2-(4-benzylpiperazin-1-yl)ethyl)amino)-N′-phenylpropanehydrazide] returned a CC50 at 24 h in data set [3] of 70 µM. Further, in data set [1], the EC50 was found to be 3.63 µM. The “SI (pEBOV) (CC50/EC50)” value in data set [2] amounted to 19.2. In data set [7], the inhibition at 10 µM is -36%.
On to `O=C(CCNCCC1CCN(Cc2ccccc2)CC1)Nn1c2ccccc2c2ccccc21` [Compound 2], for which the CC50 at 24 h is 0.46 µM in data set [3] and 4.75 µM in data set [4]. Further, the EC50 in data set [1] turned out to be 0.16 µM; in data set [5] it was 0.52 µM. Further, in data set [2], the “SI (pEBOV) (CC50/EC50)” value was determined as 2.87. Besides, the “SI (CC50/EC50), replicative EBOV” value in data set [6] came to 9.1. Also, the inhibition at 10 µM in data set [7] came out at 10%.
Turning to `O=C(CCN1CCOCC1)NN(c1ccccc1)c1ccccc1` [Compound 21, 3-Morpholino-N′,N′-diphenylpropanehydrazide], the CC50 in data set [3] is more than 10 µM. The inhibition at 10 µM in data set [1] was 29%.
For the molecule `O=C(CCl)Nn1c2ccccc2c2ccccc21` [Compound 8], the inhibition at 10 µM in data set [1] is less than 75%. Besides, the “antiviral activity” value in data set [2] is “inactive”.
Regarding `CCOC(=O)CCCCCCNCC(=O)N(c1ccccc1)c1ccccc1` [Compound 43, Ethyl 7-((2-(Diphenylamino)-2-oxoethyl)amino)heptanoate], the CC50 in data set [3] was more than 100 µM. The inhibition at 10 µM in data set [1] worked out at 35%.

The values above are taken from publication PMC10150359 (Journal of Medicinal Chemistry, 2023).
